According to patent US9765018B2, “IDO inhibitors” (BRISTOL-MYERS SQUIBB COMPANY, priority 2013, dated 2017):
pIC50: −log10 of the molar value.

target: IDO (Homo sapiens (Human), UniProt P14902); experiment: Kynurenine assay in IFN-γ-stimulated Hela cells; format: cell-based; details: 20 h, read-out: Hela Kyurenine (IC50)
Protocol: Reagents: Hela cells (ATCC, CCL-2)
IFNg (R&D, 28-IF-100)—resuspend at 10 ug/mL in PBS with 0.1% BSA 30% TCA
Ehrlich reagent (2% w/v p-dimethylaminobenzaldehyde in glacial acetic acid)
Cell Lines and Culture Conditions
Hela cancer cell lines were acquired from the American Type Culture Collection. Cells were maintained in phenol red free-RPMI1640 medium containing high glucose and L-glutamine (Invitrogen) supplemented with 10% fetal bovine serum (FBS; Invitrogen). Cell cultures were incubated at 37° C., 5% CO2, and 100% humidity.
Cell Treatment and Kynurenine Assay
Hela cells were seeded on 96-well plates (40,000 cells per well) and allowed to adhere for 5-6 hours. Cells were then treated with vehicle (DMSO) or with IDO inhibitor at a top dose of 30 μM (3-fold dilution all the way down to 1.5 nM). A final concentration of 100 ng/mL of human recombinant IFN-γ (R&D, 28-IF-100) was immediately added to the cells to stimulate IDO expression. Treated cells were then incubated for 20 hours at 37° C. At the end of the 20 h incubation, reactions were terminated by the addition of 30% TCA to each well. Plates were incubated for 30 minutes at 50° C. to hydrolyze N-formylkynurenine to kynurenine. Cells were centrifuged 10 minutes at 2400 rpm. 100 ul of supernatants were transferred to new 96 flat well plates and mixed with 100 ul Ehrlich reagent. The resulting solution was incubated 10 minutes at RT. Absorbance at 490 nm was read using Spectra Max 384 (Molecular Devices).

Chain of IDO (P14902 whole entry): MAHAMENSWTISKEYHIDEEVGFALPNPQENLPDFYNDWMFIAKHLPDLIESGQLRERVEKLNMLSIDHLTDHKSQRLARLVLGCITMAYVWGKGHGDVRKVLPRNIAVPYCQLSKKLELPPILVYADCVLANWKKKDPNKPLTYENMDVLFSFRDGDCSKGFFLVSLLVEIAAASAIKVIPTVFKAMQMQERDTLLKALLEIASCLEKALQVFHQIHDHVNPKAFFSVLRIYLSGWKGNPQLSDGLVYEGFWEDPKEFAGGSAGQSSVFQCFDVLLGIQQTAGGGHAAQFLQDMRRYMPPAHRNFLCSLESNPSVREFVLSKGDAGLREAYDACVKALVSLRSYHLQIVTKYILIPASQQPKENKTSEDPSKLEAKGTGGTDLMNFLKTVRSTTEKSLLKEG

pIC50	Compound
6.13	Cc1cccc(NC(=O)Nc2cc(-c3cc(F)cc(C(=O)O)c3)ccc2Oc2ccccc2C(C)(C)C)c1 [Example 251, 4′-(2-tert-butylphenoxy)-5-fluoro-3′-(3-m-tolylureido) biphenyl-3-carboxylic acid]
5.87	Cc1ccc(NC(=O)Nc2cc(-c3cccc(C(=O)O)c3)ccc2Oc2c(Cl)cccc2Cl)cc1 [Example 247, 4′-(2,6-dichlorophenoxy)-3′-(3-p-tolylureido) biphenyl-3-carboxylic acid]
6.06	COc1ccc(-c2ccc(Oc3c(C)cccc3C(C)(C)C)c(NC(=O)Nc3ccccc3C)c2)cc1C(=O)O [Example 59, 4′-(2-tert-butyl-6-methylphenoxy)-4-methoxy-3′-(3-o-tolylureido)biphenyl-3-carboxylic acid]
5.74	O=C(Nc1ccc(OC(F)(F)F)cc1)Nc1cc(-c2cccc(C(=O)O)c2)ccc1Oc1ccc(Cl)cc1 [Example 243, 4′-(4-chlorophenoxy)-3′-(3-(4-(trifluoromethoxy)phenyl)ureido) biphenyl-3-carboxylic acid]
6.31	COc1ccc(-c2ccc(Oc3ccccc3C(C)(C)C)c(NC(=O)Nc3ccccc3C)c2)cc1C(=O)O [Example 44, 4′-(2-tert-butylphenoxy)-4-methoxy-3′-(3-o-tolylureido)biphenyl-3-carboxylic acid]
5.84	Cc1ccc(NC(=O)Nc2cc(-c3cccc(C(=O)O)c3)ccc2Oc2ccccc2)cc1 [Example 235, 4′-phenoxy-3′-(3-p-tolylureido) biphenyl-3-carboxylic acid]
6.66	COc1ccc(-c2ccc(Oc3ccccc3C(C)(C)C)c(NC(=O)Nc3ccc(C(C)(C)C)cc3)c2)cc1C(=O)O [Example 99, 4′-(2-(tert-butyl)phenoxy)-3′-(3-(4-(tert-butyl)phenyl)ureido)-4-methoxy-[1,1′-biphenyl]-3-carboxylic acid]
6.16	CC(C)(C)c1ccccc1Oc1ccc(-c2ccccc2-c2nnn[nH]2)cc1NC(=O)Nc1ccccc1C(F)(F)F [Example 183, 1-(4-(2-tert-butylphenoxy)-2′-(1H-tetrazol-5-yl)biphenyl-3-yl)-3-(2-(trifluoromethyl)phenyl)urea]
5.61	COc1ccc(-c2ccc(O[C@@H]3CCCC[C@H]3C)c(NC(=O)Nc3ccccc3C)c2)cc1C(=O)O (relative stereo) [Example 137, 4-methoxy-4′-((trans)-2-methylcyclohexyloxy)-3′-(3-o-tolylureido)biphenyl-3-carboxylic acid]
5.34	CC(C)(C)c1ccccc1Oc1ccc(-c2cc(Cl)cc(C(=O)O)c2)cc1NC(=O)Nc1ccc(OC(F)(F)F)cc1 [Example 262, 4′-(2-tert-butylphenoxy)-5-chloro-3′-(3-(4-(trifluoromethoxy)phenyl)ureido) biphenyl-3-carboxylic acid]
6.08	COc1ccc(-c2ccc(Oc3ccccc3C(C)(C)C)c(NC(=O)Nc3c(Cl)cccc3Cl)c2)cc1C(=O)O [Example 82, 4′-(2-(tert-butyl)phenoxy)-3′-(3-(2,6-dichlorophenyl)ureido)-4-methoxy-[1,1′-biphenyl]-3-carboxylic acid]
5.97	COc1cc(-c2ccc(Oc3ccccc3C(C)(C)C)c(NC(=O)Nc3cccc(C)c3)c2)ccc1C(=O)O [Example 212, 4′-(2-tert-butylphenoxy)-3-methoxy-3′-(3-m-tolylureido) biphenyl-4-carboxylic acid]
5.91	CCc1ccccc1Oc1ccc(-c2ccc(OC)c(C(=O)O)c2)cc1NC(=O)Nc1ccc(C(F)(F)F)cc1 [Example 48, 4′-(2-ethylphenoxy)-4-methoxy-3′-(3-(4-(trifluoromethyl)phenyl)ureido)biphenyl-3-carboxylic acid]
6.21	COc1ccc(NC(=O)Nc2cc(-c3ccc(OC)c(C(=O)O)c3)ccc2Oc2ccccc2C(C)(C)C)c(C)c1 [Example 93, 4′-(2-(tert-butyl)phenoxy)-4-methoxy-3′-(3-(4-methoxy-2-methylphenyl)ureido)-[1,1′-biphenyl]-3-carboxylic acid]
6.31	COc1ccccc1Oc1ccc(-c2ccc(OC)c(C(=O)O)c2)cc1NC(=O)Nc1ccccc1Cl [Example 68, 3′-(3-(2-chlorophenyl)ureido)-4-methoxy-4′-(2-methoxyphenoxy)biphenyl-3-carboxylic acid]
5.90	COc1ccc(-c2ccc(Oc3ccccc3Cl)c(NC(=O)Nc3ccccc3C(F)(F)F)c2)cc1C(=O)O [Example 52, 4′-(2-chlorophenoxy)-4-methoxy-3′-(3-(2-(trifluoromethyl)phenyl)ureido)biphenyl-3-carboxylic acid]

pIC50	Compound
6.64	COc1cccc(NC(=O)Nc2cc(-c3ccc(OC)c(C(=O)O)c3)ccc2Oc2ccccc2C(C)(C)C)c1 [Example 86, 4′-(2-(tert-butyl)phenoxy)-3′-(3-(3-methoxyphenyl)ureido)-4-methoxy-[1,1′-biphenyl]-3-carboxylic acid]
5.66	O=C(Nc1ccccc1Cl)Nc1cc(-c2cccc(C(=O)O)c2)ccc1Oc1ccccc1C(F)(F)F [Example 259, 3′-(3-(2-chlorophenyl)ureido)-4'-(2-(trifluoromethyl)phenoxy) biphenyl-3-carboxylic acid]
6.51	Cc1ccc(NC(=O)Nc2cc(-c3ccc(C(=O)O)cc3)ccc2Oc2ccccc2C(C)(C)C)cc1 [Example 256, 4′-(2-tert-butylphenoxy)-3′-(3-p-tolylureido) biphenyl-4-carboxylic acid]
5.96	O=C(Nc1ccccc1)Nc1cc(-c2ccccc2-c2nnn[nH]2)ccc1Oc1cccc2c1CCCC2 [Example 184, 1-phenyl-3-(4-(5,6,7,8-tetrahydronaphthalen-1-yloxy)-2′-(1H-tetrazol-5-yl)biphenyl-3-yl)urea]
6.89	COc1ccc(-c2ccc(Oc3ccccc3C(C)(C)C)c(NC(=O)Nc3c(F)cccc3F)c2)cc1C(=O)O [Example 80, 4′-(2-(tert-butyl)phenoxy)-3′-(3-(2,6-difluorophenyl)ureido)-4-methoxy-[1,1′-biphenyl]-3-carboxylic acid]
5.81	CC(C)(C)c1ccccc1Oc1ccc(-c2ccc(C(=O)O)cc2)cc1NC(=O)Nc1ccccc1C(F)(F)F [Example 210, 4′-(2-tert-butylphenoxy)-3′-(3-(2-(trifluoromethyl)phenyl)ureido) biphenyl-4-carboxylic acid]
6.35	CC(C)(C)c1ccccc1Oc1ccc(-c2ccccc2C(=O)O)cc1NC(=O)Nc1ccccc1Cl [Example 155, 4′-(2-tert-butylphenoxy)-3′-(3-(2-chlorophenyl)ureido)biphenyl-2-carboxylic acid]
5.88	Cc1cccc(NC(=O)Nc2cc(-c3ccc(Cl)cc3C(=O)O)ccc2Oc2ccccc2C(C)(C)C)c1 [Example 160, 4′-(2-tert-butylphenoxy)-4-chloro-3′-(3-m-tolylureido)biphenyl-2-carboxylic acid]
7.10	COc1ccc(-c2ccc(Oc3ccccc3C(C)(C)C)c(NC(=O)Nc3ccccc3)c2)cc1C(=O)O [Example 78, 4′-(2-(tert-butyl)phenoxy)-4-methoxy-3′-(3-phenylureido)-[1,1′-biphenyl]-3-carboxylic acid]
6.82	CC(C)(C)c1ccccc1Oc1ccc(-c2ccc(C(=O)O)c(Cl)c2)cc1NC(=O)Nc1ccccc1C(F)(F)F [Example 214, 4′-(2-tert-butylphenoxy)-3-chloro-3′-(3-(2-(trifluoromethyl)phenyl)ureido) biphenyl-4-carboxylic acid]
6.42	COc1ccc(-c2ccc(Oc3ccccc3C)c(NC(=O)Nc3ccccc3C)c2)cc1C(=O)O [Example 72, 4-methoxy-4′-(o-tolyloxy)-3′-(3-o-tolylureido)biphenyl-3-carboxylic acid]
5.90	CC(C)(C)c1ccccc1Oc1ccc(-c2ccc(C(=O)O)c(F)c2)cc1NC(=O)Nc1ccccc1Cl [Example 217, 4′-(2-tert-butylphenoxy)-3′-(3-(2-chlorophenyl)ureido)-3-fluorobiphenyl-4-carboxylic acid]
6.60	COc1ccc(-c2ccc(Oc3ccccc3C(C)(C)C)c(NC(=O)NC3CCCCC3)c2)cc1C(=O)O [Example 91, 4′-(2-(tert-butyl)phenoxy)-3′-(3-(cyclohexyl)ureido)-4-methoxy-[1,1′-biphenyl]-3-carboxylic acid]
6.74	COc1ccc(-c2ccc(Oc3ccccc3C(C)(C)C)c(NC(=O)Nc3ccc(C)c(C)c3)c2)cc1C(=O)O [Example 96, 4′-(2-(tert-butyl)phenoxy)-3′-(3-(3,4-dimethylphenyl)ureido)-4-methoxy-[1,1′-biphenyl]-3-carboxylic acid]
5.99	Cc1cccc(NC(=O)Nc2cc(-c3cc(Cl)cc(C(=O)O)c3)ccc2Oc2ccccc2C(C)(C)C)c1 [Example 239, 4′-(2-tert-butylphenoxy)-5-chloro-3′-(3-m-tolylureido) biphenyl-3-carboxylic acid]

Compound	pIC50
Cc1ccccc1NC(=O)Nc1cc(-c2ccc(C(=O)O)cc2)ccc1Oc1ccccc1C(C)(C)C [Example 200, 4′-(2-tert-butylphenoxy)-3′-- (3-o-tolylureido) biphenyl-4-carboxylic acid]	5.82
4′-(2-(tert-butyl)phenoxy)-3′-(3-(4-fluorophenyl)ureido)-4-methoxy-[1,1′-biphenyl]-3-carboxylic acid [Example 107]	6.49
